Assay results: patent publication US20020058049A1, “Stable ophthalmic preparation” (priority 2000, published 2002)

Legend:
[1] = Percent unoprostone isopropyl absorbed by bottle (PP vs LDPE) at three storage temperatures; format: physicochemical
Description: (§1) 0.15 wt % unoprostone isopropyl ester (a typical prostaglandin analogue) solution in an isotonic solution containing mannitol and edetate disodium is prepared. The solution also contains 0.015 wt % benzalkonium chloride as a preservative. The solution is placed in a polypropylene bottle and a polyethylene bottle, which bottles have 7.5 ml void volume, and 5 ml of the solution is placed in each bottle. The bottles have air-tight caps. The polypropylene bottle is molded from REXENE PP23M2 polypropylene and the polyethylene bottle is produced from ALATHON 2025 […] polyethylene (LDPE), which is available from DuPont. The bottles are placed in controlled environment at 40° C. and ambient humidity, and the concentration of unoprostone is periodically measured using HPLC.
Example 1 is repeated except that three different temperatures are used to store the samples. As put forth in Table 3, the percent unoprostone isopropyl absorbed by polypropylene is much lower than LDPE. This is particularly significant in that the lower absorption at higher temperatures enables the preparation of the present invention to meet current FDA stability requirements without refrigeration.

[2] = Long-term stability of unoprostone in polypropylene bottles at 25° C., 40% relative humidity; format: physicochemical; conditions: PP bottle
Description: as §1
The unoprostone solution is placed in the polypropylene bottles, as described in Example 1, and placed in storage at 25° C. with 40% relative humidity. The stability over time of unoprostone in the polypropylene bottles is measured.

- % Unoprostone Absorbed ([1]; LDPE bottle, 12 mo. at 5° C.): 3.11%
- % Unoprostone Absorbed ([1]; LDPE bottle, 12 mo. at 25° C.): 4.76%
- % Unoprostone Absorbed ([1]; LDPE bottle, 12 mo. at 30° C.): 5.70%
- % Unoprostone Absorbed ([1]; PP bottle, 12 mo. at 5° C.): 0.00%
- % Unoprostone Absorbed ([1]; PP bottle, 12 mo. at 25° C.): 0.98%
- % Unoprostone Absorbed ([1]; PP bottle, 12 mo. at 30° C.): 1.98%
- % Unoprostone Isopropyl (Active) ([2]; 3 mo.): 101.3%
- % Unoprostone Isopropyl (Active) ([2]; 6 mo.): 101.3%
- % Unoprostone Isopropyl (Active) ([2]; 9 mo.): 101.3%
- % Unoprostone Isopropyl (Active) ([2]; 18 mo.): 101.3%
- % Unoprostone Isopropyl (Active) ([2]; Initial): 101.3%
- degradation in concentration over time ([2]; over eighteen months): no measurable degradation
Compound: CCCCCCCC(=O)CC[C@@H]1[C@@H](C/C=C\CCCC(=O)OC(C)C)[C@@H](O)C[C@H]1O [Unoprostone, unoprostone isopropyl ester]
